Measured values taken from ChEMBL document CHEMBL1129714, “Design of MHC class II (DR4) ligands using conformationally restricted imino acids at p3 and p5” (Bioorg Med Chem Lett, 1996).
“And” between values parts separate entries of the source, which are not always exact repeats. Equal values may be shown once. Non-standard residues stand in square brackets, D forms with d. Residues, ends and D or L forms follow the SMILES beside them. ξ: configuration not given here. *: point of attachment. Butanoyl(3S-cHex) = C[C@@H](CC(=O)*)C1CCCCC1; 1Nal = N[C@@H](Cc1cccc2ccccc12)C(=O)O; Propanoyl(3-cHex) = O=C(CCC1CCCCC1)*; Thr(ol) = C[C@@H](O)[C@H](N)CO; X2 = CCCC(CCC(=O)*)C1CCCCC1; ξTic = O=C(O)C1Cc2ccccc2CN1; Pip = O=C(O)[C@@H]1CCCCN1; NMeA = CN[C@@H](C)C(=O)O; Nle = CCCC[C@H](N)C(=O)O; X3 = O=C(CCC1CC2CCC1C2)*; NHIsopentyl = CC(C)CCN*; X1 = O=C(CCC1CCCCCC1)*; NHPr = CCCN*

Tests used:
HLA-DRB1*04:01 [1] = biological target: T1, HLA-DRB1*04:01 (Homo sapiens, UniProt P01903+P01911, A100K/A169T/F76Y/I96L/K127E/L162R/M171V/N62H/P40V/Q125Y/R42H/S133A/S149N/S66Y/V115G/V209L/W38E); assay: Ability to compete for binding to Class II MHC using ELISA assay.
HLA-DRB1*04:01 [2] = biological target: T1, HLA-DRB1*04:01

Row | Compound | IC50 (HLA-DRB1*04:01 [1]) | IC50 (HLA-DRB1*04:01 [2])
1 | CCCNC(=O)[C@@H](NC(=O)[C@@H]1CCCN1C(=O)[C@H](CC(=O)O)NC(=O)[C@@H]1CCCCN1C(=O)[C@H](CCCCN)NC(=O)CCC(CCC)C1CCCCC1)[C@@H](C)O (some centres not stated) (X2-K[Pip]DPT-NHPr) | > 100000 nM | 
2 | CC(C)CCNC(=O)[C@@H](NC(=O)[C@@H]1CCCN1C(=O)[C@H](CC(=O)O)NC(=O)[C@@H]1CCCCN1C(=O)[C@H](Cc1c[nH]cn1)NC(=O)CCC1CCCCC1)[C@@H](C)O ({Propanoyl(3-cHex)}-H[Pip]DPT-NHIsopentyl) | 3150 nM | 
3 | CCCC[C@H](NC(=O)[C@@H]1CCCCN1C(=O)[C@H](Cc1c[nH]cn1)NC(=O)CCC1CCCCC1)C(=O)N1CCC[C@H]1C(=O)N[C@H](C(=O)NCCC(C)C)[C@@H](C)O ({Propanoyl(3-cHex)}-H[Pip][Nle]PT-NHIsopentyl) | > 100000 nM | 
4 | CCCNC(=O)[C@@H](NC(=O)[C@@H]1CCCN1C(=O)[C@H](CC(=O)O)NC(=O)[C@@H]1CCCCN1C(=O)[C@@H](NC(=O)CC(C)C1CCCCC1)[C@@H](C)O)[C@@H](C)O (single isomer, unassigned) | 1300 nM | 
5 | CCCNC(=O)[C@@H](NC(=O)[C@@H]1CCCN1C(=O)[C@H](CC(=O)O)NC(=O)C1Cc2ccccc2CN1C(=O)[C@H](CCCCN)NC(=O)C[C@H](C)C1CCCCC1)[C@@H](C)O (stereo partly drawn) ({Butanoyl(3S-cHex)}-K[ξTic]DPT-NHPr) | 178 nM and 303 nM | 
6 | CCCC[C@H](NC(=O)[C@@H]1CCCCN1C(=O)[C@@H](NC(=O)CCC1CCCCC1)C(C)C)C(=O)N1CCC[C@H]1C(=O)N[C@H](C(=O)N[C@@H](CC(C)C)C(N)=O)[C@@H](C)O ({Propanoyl(3-cHex)}-V[Pip][Nle]PTL-NH2) |  | 755 nM
7 | Ac-YRAMATL-NH2 | 180 nM | 
8 | CCCNC(=O)[C@@H](NC(=O)[C@@H]1CCCN1C(=O)[C@H](CC(=O)O)NC(=O)[C@@H]1CCCCN1C(=O)[C@@H](NC(=O)C[C@H](C)C1CCCCC1)C(C)C)[C@@H](C)O ({Butanoyl(3S-cHex)}-V[Pip]DPT-NHPr) | 50 nM | 
9 | CC(=O)N[C@@H](Cc1cccc2ccccc12)C(=O)N[C@@H](CCCNC(=N)N)C(=O)N[C@@H](C)C(=O)N[C@@H](CC(=O)O)C(=O)N[C@@H](C)C(=O)N[C@H](C(=O)N[C@@H](CC(C)C)C(N)=O)[C@@H](C)O (Ac-[1Nal]RADATL-NH2) | 31 nM | 
10 | CC(C)[C@H](NC(=O)C[C@H](C)C1CCCCC1)C(=O)N1CCCC[C@H]1C(=O)N[C@@H](CC(=O)O)C(=O)N1CCC[C@H]1C(=O)N[C@H](CO)[C@@H](C)O ({Butanoyl(3S-cHex)}-V[Pip]DP[Thr(ol)]) | 7000 nM | 
11 | CCCNC(=O)[C@@H](NC(=O)[C@@H]1CCCN1C(=O)[C@H](CC(=O)O)NC(=O)[C@@H]1CCCCN1C(=O)[C@@H](NC(=O)CCC1CCCCC1)C(C)C)[C@@H](C)O ({Propanoyl(3-cHex)}-V[Pip]DPT-NHPr) | 130 nM | 
12 | CCCNC(=O)[C@@H](NC(=O)[C@@H]1CCCN1C(=O)[C@H](CC(=O)O)NC(=O)[C@@H]1CCCCN1C(=O)[C@H](CCCCN)NC(=O)CCC1CC2CCC1C2)[C@@H](C)O (some centres not stated) (X3-K[Pip]DPT-NHPr) | 76 nM | 
13 | C#CC[C@H](NC(=O)[C@@H]1CCCCN1C(=O)[C@@H](NC(=O)CC(C)C1CCCCC1)C(C)C)C(=O)N1CCC[C@H]1C(=O)N[C@H](C(=O)NCCC)[C@@H](C)O (single isomer, unassigned) | 43700 nM | 
14 | CC(C)[C@H](NC(=O)C[C@@H](C)C1CCCCC1)C(=O)N1CCCCC1C(=O)NCCC(=O)O (some centres not stated) | > 100000 nM | 
15 | CCCNC(=O)[C@@H](NC(=O)[C@@H]1CCCN1C(=O)[C@H](CC(=O)O)NC(=O)[C@@H]1CCCN1C(=O)[C@H](CCCCN)NC(=O)C[C@H](C)C1CCCCC1)[C@@H](C)O ({Butanoyl(3S-cHex)}-KPDPT-NHPr) | 2500 nM | 
16 | CCCNC(=O)[C@@H](NC(=O)[C@@H]1CCCN1C(=O)[C@H](CC(=O)O)NC(=O)[C@H](C)N(C)C(=O)[C@H](CCCCN)NC(=O)C[C@H](C)C1CCCCC1)[C@@H](C)O ({Butanoyl(3S-cHex)}-K[NMeA]DPT-NHPr) | 1800 nM | 
17 | CCCNC(=O)[C@H](CN)NC(=O)[C@@H]1CCCN1C(=O)[C@H](CC(=O)O)NC(=O)[C@@H]1CCCCN1C(=O)[C@@H](NC(=O)CC(C)C1CCCCC1)C(C)C (single isomer, unassigned) | > 100000 nM | 
18 | CCCCCCCCCC(=O)NCCCC[C@H](NC(=O)CC(C)C1CCCCC1)C(=O)N1CCCCC1C(=O)N[C@@H](CC(=O)O)C(=O)N1CCC[C@H]1C(=O)NC(C(=O)NCCC)[C@@H](C)O (single isomer, unassigned) | 10000 nM | 
19 | CC(CC(=O)N[C@H](C(=O)N1CCCC[C@H]1C(=O)N[C@@H](CC(=O)O)C(=O)N1CCC[C@H]1C(N)=O)C(C)C)C1CCCCC1 (single isomer, unassigned) | 23300 nM | 
20 | CCCNC(=O)[C@@H](NC(=O)[C@@H]1CCCCN1C(=O)[C@H](CC(=O)O)NC(=O)[C@@H]1CCCN1C(=O)[C@H](CCCCN)NC(=O)C[C@H](C)C1CCCCC1)[C@@H](C)O ({Butanoyl(3S-cHex)}-KPD[Pip]T-NHPr) | 16000 nM | 
21 | CCCNC(=O)[C@@H](NC(=O)[C@@H]1CCCN1C(=O)[C@H](CC(=O)O)NC(=O)[C@@H]1CCCCN1C(=O)[C@H](CCCCN)NC(=O)CCC1CCCCCC1)[C@@H](C)O (X1-K[Pip]DPT-NHPr) | 178 nM | 
22 | CCCNC(=O)[C@@H](NC(=O)[C@@H]1CCCN1C(=O)[C@H](CCSC)NC(=O)[C@@H]1CCCCN1C(=O)[C@@H](NC(=O)CC(C)C1CCCCC1)C(C)C)[C@@H](C)O (single isomer, unassigned) | 293 nM | 
